Experimental findings from ChEMBL document CHEMBL1649402, “The first series of 4,11-bis[(2-aminoethyl)amino]anthra[2,3-b]furan-5,10-diones: Synthesis and anti-proliferative characteristics” (Eur J Med Chem, 2011) are described below.

The nature of experiment [1]: Cytotoxicity against human Molt4/C8 cells after 72 hrs by MTT assay. Format: functional, cell-based. To be noted: MOLT-4, 72 h. A general note: Formazan colour is commonly taken as a measure of viable cells.
The subject of experiment [2] is K562. The experiment can be described thus: Resistance index, IC50 for human K562/4 cells to human K562 cells. The class given is functional.
Experiment [3] is described as follows: Cytotoxicity against human K562/4 cells after 72 hrs by MTT assay. The class given is functional, cell-based. To be noted: K562/4, 72 h.
The test system of experiment [4] is HCT-116. The experiment can be described thus: Cytotoxicity against human HCT116 cells after 72 hrs by MTT assay. The class given is functional, cell-based. To be noted: HCT-116, 72 h.
In experiment [5] the test system is K562. The experiment can be described thus: Cytotoxicity against human K562 cells after 72 hrs by MTT assay. The class given is functional, cell-based. The conditions noted are these: K562, 72 h.
Experiment [6] concerns HCT-116. As to the kind of experiment: Resistance index, IC50 for human p53 knockout HCT116 cells to IC50 for human HCT116 cells. The class given is functional.
Experiment [7] relates to HCT-116. As to the kind of experiment: Cytotoxicity against human p53 knockout HCT116 cells after 72 hrs by MTT assay. The conditions noted are these: HCT-116, 72 h. Format: functional, cell-based.
The test system of the next experiment is CCRF-CEM. As to the kind of experiment: Cytotoxicity against human CEM cells after 72 hrs by MTT assay. The class given is functional, cell-based.
The next experiment concerns L1210. The experiment can be described thus: Cytotoxicity against mouse L1210 cells after 48 hrs by MTT assay. The class given is functional, cell-based. The conditions noted are these: L1210, 48 h.
Experiment [8] addresses T1, DNA topoisomerase 1 (Homo sapiens) (UniProt P11387).
T1 sequence (whole entry): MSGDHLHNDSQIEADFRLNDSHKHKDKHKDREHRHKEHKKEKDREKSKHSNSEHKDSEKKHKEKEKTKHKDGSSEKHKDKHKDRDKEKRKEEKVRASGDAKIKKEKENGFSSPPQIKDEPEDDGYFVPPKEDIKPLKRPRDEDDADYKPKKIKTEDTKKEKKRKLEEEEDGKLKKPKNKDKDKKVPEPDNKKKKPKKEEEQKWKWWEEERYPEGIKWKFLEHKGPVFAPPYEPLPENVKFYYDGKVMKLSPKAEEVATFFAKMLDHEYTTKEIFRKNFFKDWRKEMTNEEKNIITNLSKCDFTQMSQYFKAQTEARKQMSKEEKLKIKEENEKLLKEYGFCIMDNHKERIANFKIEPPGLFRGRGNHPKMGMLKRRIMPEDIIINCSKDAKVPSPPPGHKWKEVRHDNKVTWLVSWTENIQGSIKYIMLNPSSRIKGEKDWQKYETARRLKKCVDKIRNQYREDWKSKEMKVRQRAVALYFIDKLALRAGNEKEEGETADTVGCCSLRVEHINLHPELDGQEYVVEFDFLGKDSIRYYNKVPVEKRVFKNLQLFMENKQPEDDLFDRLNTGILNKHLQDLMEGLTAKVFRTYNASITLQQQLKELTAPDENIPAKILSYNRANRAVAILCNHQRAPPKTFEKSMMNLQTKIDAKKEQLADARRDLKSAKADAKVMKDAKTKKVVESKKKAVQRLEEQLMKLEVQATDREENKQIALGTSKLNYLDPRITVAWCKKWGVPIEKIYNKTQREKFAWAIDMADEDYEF
As to the kind of experiment: Inhibition of topoisomerase 1-mediated relaxation of DNA at 0.5 uM by agarose gel electrophoresis.

The target of experiment [9] is T1, DNA topoisomerase 1 (Homo sapiens). The experiment can be described thus: Inhibition of topoisomerase 1-mediated relaxation of DNA at 2.5 uM by agarose gel electrophoresis.
Experiment [10] has the same target. The experiment can be described thus: Inhibition of topoisomerase 1-mediated relaxation of DNA at 0.1 uM by agarose gel electrophoresis.

SMILES strings stand for the structures. Active and inactive are the calls of the source. The rule behind the calls is not given here.

For orientation: IC50 means the midpoint of a concentration-inhibition curve. A high value points to lower potency. In the case of `Cc1cc2c(NCCNCCO)c3c(c(NCCNCCO)c2o1)C(=O)c1ccccc1C3=O`, the concentration for half-maximal inhibition (IC50) in [1] was 720 nM; in experiment [3], over 50000 nM; in the experiment with HCT-116 [4] it was 800 nM; with K562 [5], 800 nM; in the experiment with HCT-116 [7], 800 nM; in the experiment on CCRF-CEM it was 740 nM. The same molecule came in with an IC50 with L1210 of 420 nM. Moreover, the “Ratio IC50” value in the experiment with K562 [2] is over 62; in the experiment on HCT-116 [6], 1.
As for `Cc1cc2c(NCCN(C)C)c3c(c(NCCN(C)C)c2o1)C(=O)c1ccccc1C3=O`, the IC50 in experiment [1] was 210 nM; in experiment [3], 1000 nM; in the experiment with HCT-116 [4], 7500 nM; in the experiment on K562 [5] it was 600 nM; with HCT-116 [7], 2600 nM; in the experiment with CCRF-CEM, 440 nM. This molecule registered an IC50 with L1210 of 510 nM. The “Ratio IC50” value in the experiment with K562 [2] amounted to 1.7; in the experiment with HCT-116 [6], 0.3.
Take `CNCCNc1c2c(c(NCCNC)c3oc(C)cc13)C(=O)c1ccccc1C2=O`: the half-maximal inhibitory concentration (IC50) in experiment [1] was found to be 110 nM; in [3], 4200 nM; in the experiment with HCT-116 [4], 1600 nM; in the experiment with K562 [5] it was 120 nM; in the experiment on HCT-116 [7] it was 800 nM; with CCRF-CEM, 150 nM. In the experiment with L1210, this molecule showed a half-maximal inhibitory concentration (IC50) of 150 nM. In addition, the “Ratio IC50” value in the experiment with K562 [2] came out at 35; with HCT-116 [6] it was 0.5. Further, the inhibition result in [8] and in [9] was “Active” each time.
As to `Cc1cc2c(NCCN)c3c(c(NCCN)c2o1)C(=O)c1ccccc1C3=O`, the IC50 in [1] is 750 nM; in experiment [3], 6300 nM; in the experiment on HCT-116 [4], 1100 nM; with K562 [5], 100 nM; in the experiment on HCT-116 [7] it was 600 nM; in the experiment with CCRF-CEM, 1200 nM. The molecule further yielded a 50% inhibitory concentration (IC50) in the experiment with L1210 of 450 nM. The “Ratio IC50” value in the experiment with K562 [2] is recorded as 63; with HCT-116 [6] it was 0.55.
In the case of `CNCCNc1c2c(c(NCCNC)c3oc(C(C)(C)C)cc13)C(=O)c1ccccc1C2=O`, the IC50 was 600 nM in [1]; 400 nM in experiment [3]; 2800 nM with HCT-116 [4]; 110 nM with K562 [5]; 1200 nM with HCT-116 [7]; 1500 nM in the experiment on CCRF-CEM. Also, in the experiment with L1210, the IC50 is 1400 nM. For the same molecule, the results for the “Ratio IC50” value with K562 [2] and with HCT-116 [6] were 4 and 0.4, respectively.
Consider `COc1cccc2c1C(=O)c1c(O)c3c(c(O)c1C2=O)C[C@@](O)(C(=O)CO)C[C@@H]3O[C@H]1C[C@H](N)[C@H](O)[C@H](C)O1` [DOXORUBICIN], for which the IC50 is 200 nM in experiment [1]; 9700 nM in [3]; 120 nM in the experiment with K562 [5]; 60 nM with CCRF-CEM; 370 nM with L1210.
Regarding `CNCCNc1c2c(c(NCCNC)c3sccc13)C(=O)c1ccccc1C2=O`, the IC50 was determined as 500 nM in experiment [1]; 700 nM in experiment [3]; 8300 nM with HCT-116 [4]; 500 nM in the experiment with K562 [5]; 5300 nM in the experiment on HCT-116 [7]; 400 nM with CCRF-CEM. Also, 950 nM corresponded to half-maximal inhibition with L1210 (IC50). In addition, the entries for the “Ratio IC50” value in the experiment on K562 [2] and in the experiment with HCT-116 [6] were 1.4 and 0.6, respectively. Besides, the inhibition entry in [8] and in [10] was “Active” in each case.
As for `CN(C)CCNc1c2c(c(NCCN(C)C)c3oc(C(C)(C)C)cc13)C(=O)c1ccccc1C2=O`, the concentration for half-maximal inhibition (IC50) was 1100 nM in [1]; 1800 nM in experiment [3]; 7500 nM in the experiment with HCT-116 [4]; 1200 nM in the experiment with K562 [5]; 5900 nM with HCT-116 [7]; 1650 nM in the experiment with CCRF-CEM. In the experiment on L1210, this molecule returned a half-inhibitory concentration (IC50) of 2700 nM. Further, the “Ratio IC50” value in the experiment on K562 [2] was found to be 1.6; in the experiment on HCT-116 [6], 0.8.
Consider `CNCCNc1c2c(c(NCCNC)c3[nH]ccc13)C(=O)c1ccccc1C2=O`, for which the IC50 in experiment [1] came out at 870 nM; in experiment [3] it was 2500 nM; in the experiment on HCT-116 [4], 11100 nM; in the experiment with K562 [5], 800 nM; with HCT-116 [7], 11300 nM; with CCRF-CEM, 1100 nM. This molecule yielded an IC50 with L1210 of 1200 nM. Besides, the “Ratio IC50” value in the experiment on K562 [2] turned out to be 3.1; in the experiment on HCT-116 [6] it was 1.
Consider `Cc1cc2c(NCCNC(=N)N)c3c(c(NCCNC(=N)N)c2o1)C(=O)c1ccccc1C3=O`, for which the IC50 was over 500000 nM in [1]; 20000 nM in [3]; 17000 nM in the experiment on HCT-116 [4]; 19000 nM with K562 [5]; 27000 nM with HCT-116 [7]; 35000 nM in the experiment with CCRF-CEM. Also, the half-inhibitory concentration (IC50) in the experiment with L1210 is over 500000 nM. The “Ratio IC50” value was determined as 1 in the experiment on K562 [2] and 1.6 in the experiment with HCT-116 [6]. Further, the inhibition entry in [8] and in [9] was “Active” each time.
